# Reference: US5124319A, “Benzimidazole phosphono-amino acids” (American Home Products Corporation, priority 1991, dated 1992)
# Where a name gives a salt, the structure may show the parent alone. Read-outs that look alike come from different tables or passages of the source.
# Tests used:
# NMDA-induced convulsions = test: murine NMDA-induced convulsion assay (survival); assay type: in vivo, mice (male Swiss-albino, CD-1 strain); conditions: for ED50: Mus musculus, ip, 0.5 h
# Method: The compounds of the invention are further tested for their in vivo ability to antagonize NMDA in the murine NMDA-induced convulsion assay.
# Male Swiss-albino mice (CD-1 strain, Charles River) 18-22 grams in weight, after 18 hours of food deprivation, are habituated to an observation chamber for 30 minutes. The mice are pretreated with the representative test compound followed thirty minutes later with NMDA, 195 mg/kg, i.p., which is a dose normally causing 90% mortality resulting from motor seizures including uncontrollable hind leg scratching or limbs and/or torso muscle jerking with loss of righting reflex followed by death within the 30 minute observation period after NMDA administration. From the latter, the ED50 for survival is determined.
# Data analyzed using the probit analysis program PS-NONLIN (Natural Response Rate Version). The output of this program contains the statistical significance of the slope of the dose-response and the ED 50% and 95% confidence limits for survival.
# NMDA receptor = test: [3H]CPP binding assay (displacement of tritiated CPP in rat frontal cortex homogenates); conditions: [3H]CPP 8 nM, 23° C., 15 min, pH 7.6
# Method: The compounds of the invention are tested for their NMDA competitive antagonist activity by their ability to displace tritiated 3-(2-carboxypiperazine-4-yl)propyl-1-phosphonic acid (CPP), a known competitive NMDA antagonist, in rat frontal cortex homogenates in the in vitro [^3 H]CPP binding assay.
# Rats are decapitated and their brains are immediately removed, weighed and placed in approximately 15 volumes of ice cold 10% sucrose. Each brain is homogenized using a Potter Elvehjem glass homogenizer (12 strokes at 840 rpm) equipped with a Teflon pestle. The homogenate is then centrifuged at 1,000×g. for 10 minutes. The resulting pellet is discarded and the supernatant is centrifuged at 20,000×g. for 20 minutes. The crude mitochondrial pellet is resuspended in ice cold distilled water and dispersed using a Brinkmann Polytron (PT-10 at setting of 6 for 30 seconds). The suspension is centrifuged at 8,000×g. for 20 minutes. The resulting supernatant and buffy coat is centrifuged at 48,000×g.for 20 minutes. The final crude synaptic membrane pellet is resuspended in ice cold distilled water and centrifuged at 48,000×g. for 20 minutes.
# To facilitate removal of endogenous glutamate, the membranes are resuspended in 15 volumes of ice cold 50 mMolar TRIS (pH 7.6) containing 0.04% Triton X-100. The suspension is incubated at 37° C. for 15 minutes, and then centrifuged at 20,000×g. for 20 minutes. The pellet is washed (i.e., resuspended in ice cold TRIS buffer and centrifuged at 20,000×g. for 20 minutes) twice. The membrane pellet is finally resuspended in 15 volumes ice cold 50 mMolar TRIS, distributed to several centrifuge tubes and centrifuged at 20,000×g. for 20 minutes and the pellets are frozen (-70° C.) for subsequent use in binding assays.
# For the binding assay, the membrane pellets are thawed and resuspended in 15 volumes ice cold 50 mMolar TRIS (pH 7.6) buffer. Triplicate samples (1000 μl) of the membrane suspension containing between 0.2 and 0.4 mg protein/ml are incubated at 23° C. for 15 minutes with 8 nM [^3 H]CPP (New England Nuclear), one of various test solutions, and buffer in a final incubation volume of 2 ml using plastic minivials (Skatron). The samples are then centrifuged at 48,000×g. for 20 minutes and the supernatants discarded. The pellets are digested with tissue solubilizer (NCS, Amersham; 500 μl/sample) for 1 hour. Hydrochloric acid (100 μl of 4N) is added to each sample to reduce chemiluminescence during subsequent counting. Scintillation cocktail (Aqasol, DuPont; 3.2 ml) is added to each of the minivials which are then capped and shaken for 15 minutes prior to counting. The vials are placed into a Packard 460 CD (or equivalent) counter for determination of radioactivity.
# Total specific binding is defined as total binding less the binding in the presence of 1 mMolar NMDA. Specific binding in the presence of a test drug is expressed as a percent of total specific binding when no drug is present. When test compounds are examined for a dose-response relationship, the results are then plotted as the logit of % binding vs. the log of the test drug concentration. Linear regression analysis then yields a straight line from which an IC50 with 95% confidence limits can be calculated.
# [1] = reference compounds, i.p., 30 min before NMDA 195 mg/kg i.p., 95% confidence interval, read-out: ED50 % for survival
# [2] = standard compounds, read-out: IC50 ± S.E.M.
# [3] = compounds of the invention, read-out: IC50
# [4] = compounds of the invention, i.p., 30 min before NMDA 195 mg/kg i.p., read-out: ED50 (survival)
structure (smiles),measurement,setting,value
"C[C@]12N[C@H](Cc3ccccc31)c1ccccc12 [MK-801, reference compound]",ED50,NMDA-induced convulsions; [1],0.19 mg/kg
"NC(CCCCCP(=O)(O)O)C(=O)O (centres unmarked) [AP7, reference compound]",IC50,NMDA receptor; [2],0.639 ± 0.129 µM
"O=C(O)C1CN(CCCP(=O)(O)O)CCN1 (centres unmarked) [CPP, 3-(2-carboxypiperazine-4-yl)propyl-1-phosphonic acid, reference compound]",ED50,NMDA-induced convulsions; [1],1.04 mg/kg
"Cl.N[C@H](Cc1nc2cc(Cl)ccc2n1CP(=O)(O)O)C(=O)O [Example 8, R-α-Amino-5-chloro-1-(phosphonomethyl)-1H-benzimidazole-2-propanoic acid hydrochloride]",IC50,NMDA receptor; [3],0.007 µM
same,ED50,NMDA-induced convulsions; read-out: ED50 (survival),0.13 mg/kg
"Cl.Cl.N[C@H](Cc1nc2ccccc2n1CP(=O)(O)O)C(=O)O.O.O [Example 1, R-α-Amino-1-(phosphonomethyl)-1H-benzimidazole-2-propanoic acid, dihydrochloride, dihydrate]",IC50,NMDA receptor; [3],0.059 µM
same,ED50,NMDA-induced convulsions; read-out: ED50 (survival),2 mg/kg
"Cl.Cl.N[C@H](Cc1nc2cc(Cl)c(Cl)cc2n1CP(=O)(O)O)C(=O)O [Example 2, R-α-Amino-5,6-dichloro-1-(phosphonomethyl)-1H-benzimidazole-2-propanoic acid, dihydrochloride]",IC50,NMDA receptor; [3],0.0182 µM
same,ED50,NMDA-induced convulsions; read-out: ED50 (survival),2.7 mg/kg
"N[C@H](Cc1nc2ccc(Cl)cc2n1CP(=O)(O)O)C(=O)O [Example 7, R-α-Amino-6-chloro-1-(phosphonomethyl)-1H-benzimidazole-2-propanoic acid, 0.8 hydrochloride, hydrate]",IC50,NMDA receptor; [3],0.0217 µM
same,ED50,NMDA-induced convulsions; [4],< 5 mg/kg
"CN1C(=O)CN=C(c2ccccc2)c2cc(Cl)ccc21 [Diazepam, reference compound]",ED50,NMDA-induced convulsions; [1],1.91 mg/kg
"N[C@@H](CCC(=O)O)C(=O)O [L. Glutamic Acid, reference compound]",IC50,NMDA receptor; [2],0.0643 ± 0.0047 µM
"N[C@@H](Cc1nc2cc(Cl)c(Cl)cc2n1CP(=O)(O)O)C(=O)O [Example 9, S-α-Amino-5,6-dichloro-1-(phosphonomethyl)-1H-benzimidazole-2-propanoic acid, dihydrate]",IC50,NMDA receptor; [3],1.01 µM
same,ED50,NMDA-induced convulsions; [4],> 10 mg/kg
"Cc1cc2nc(C[C@@H](N)C(=O)O)n(CP(=O)(O)O)c2cc1C.Cl.Cl [Example 3, R-α-Amino-5,6-dimethyl-1-(phosphonomethyl)-1H-benzimidazole-2-propanoic acid, dihydrochloride]",IC50,NMDA receptor; [3],0.123 µM
same,% survival,"NMDA-induced convulsions; 3 mg/kg, 30 min before NMDA 195 mg/kg i.p.",10%
